The values that follow come from patent publication US8466169B2, “SF5 derivatives as PAR1 inhibitors, production thereof, and use as medicaments” (Sanofi, priority 2008, dated 2013).

The IC50 is the concentration at which inhibition is half-maximal.

For experiment [1], the target named is T1, PAR1 (Homo sapiens, UniProt P25116).
T1 sequence (P25116 22-425): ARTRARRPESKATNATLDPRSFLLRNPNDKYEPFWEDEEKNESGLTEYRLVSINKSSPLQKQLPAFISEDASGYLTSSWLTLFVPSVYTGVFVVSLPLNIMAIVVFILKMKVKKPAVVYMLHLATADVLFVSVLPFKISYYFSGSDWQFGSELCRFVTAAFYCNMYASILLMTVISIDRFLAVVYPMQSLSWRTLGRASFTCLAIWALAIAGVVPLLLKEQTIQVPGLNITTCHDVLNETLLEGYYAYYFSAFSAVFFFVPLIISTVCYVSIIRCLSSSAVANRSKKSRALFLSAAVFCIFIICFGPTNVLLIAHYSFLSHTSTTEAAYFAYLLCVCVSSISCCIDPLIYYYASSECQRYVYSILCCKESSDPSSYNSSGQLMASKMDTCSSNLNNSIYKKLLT
The experiment in a line: PAR1 binding test (radioligand displacement, membrane preparation). More on the design: expressed in transfected cells; host or cells: High Five insect cells (transient expression), membrane preparation. The conditions noted are these: human PAR1 receptor expressed in High Five insect cells, membrane 1 mg/ml, radioligand 20 nM, 60 minutes; read-out: Inhibition of binding IC50. The protocol:
The synthesized substances were examined in a PAR1 binding test. This tested whether the substances can inhibit the binding of a radioactively labeled PAR1 agonist known from the literature at the PAR1 receptor (Ho-Sam Ahn, Mol Pharm, 51:350-356, 1997).
The human PAR1 receptor was expressed transiently in High Five insect cells. From these cells, after 48 hours, a membrane preparation was produced by standard methods, aliquoted into 10 mM Tris-HCl; 0.3 mM EDTA; 1 mM EGTA; 250 mM sucrose pH 7.5, and stored at −80° C.
The substances were preincubated with the membrane at RT for 15 minutes, then the radioligand (ALA-(para-F-Phe)-Arg-ChA-homoArg-(3,4-^3H-Tyr)-NH2; approx. 40 Ci/mMol) was added. The end concentration of the radioligand in the test buffer (50 mM Tris-HCl; 10 mM MgCl2; 1 mM EGTA; 0.1% BSA; 2% DMSO) was 20 nM, that of the membrane 1 mg/ml. After an incubation time of 60 minutes, 25 μl of the mixture were transferred to a 96-well MultiScreenHTS FB microtiter filtration plate (from Millipore), which had been pretreated beforehand with a 0.75% aqueous polyethyleneimine solution for 5 hours at RT. Thereafter, with vacuum extraction, each well was washed four times with 300 μl of buffer (50 mM Tris-HCl; 10 mM MgCl2; 1 mM EGTA). The plate was then dried overnight, 100 μl of scintillator per well were added, and the plate was analyzed after 6 hours in a Wallac MicroBeta (from PerkinElmer) liquid scintillation counter. The nonspecific binding was determined in the presence of 100 μM SCH79797 (PAR-1 antagonist; from Tocris, Cat. No. 1592) and subtracted from all measurements. The 100% value used was a control without inhibitor. The % inhibition values of a substance dilution series were used to calculate the IC50 with the aid of nonlinear regression analysis according to the 4-parameter equation.
(In general: Displacement assays read how much labelled ligand stays bound in the presence of the test substance.)

Experiment [2] deals with T1, PAR1. The experiment in a line: Inhibition of PAR1-mediated platelet aggregation induced by TRAP. The format is cell-based. On the set-up: endogenous in cells; host or cells: washed human blood platelets from volunteer donors. Particulars: washed platelets from healthy volunteer donors, TRAP (thrombin receptor-activating peptide) as agonist, 96-well format, AUC at 650 nm. As to the method:
Inhibition of PAR1-Mediated Platelet Aggregation
The biological testing of the substances took place in platelet aggregation induced by TRAP (thrombin receptor-activating peptide) in 96-well format. For this purpose, blood was taken from healthy volunteer donors in 20 ml syringes containing 2 ml of 3.13% sodium citrate solution. After centrifugation at 150×g for 20 minutes, the platelet-rich plasma (PRP) was separated off and admixed with 1 μl of PGE1 solution (500 μg/ml in ethanol)/ml of PRP. Incubation at RT for 5 minutes was followed by centrifugation at 120×g for 15 minutes to remove the leukocytes. The leukocyte-free PRP was transferred in 5 ml portions into 15 ml PP tubes and centrifuged at 360×g for 15 minutes in order to pellet the platelets. The plasma was then decanted off and the platelet sediment from 5 ml of PRP was resuspended in 1 ml of Tyrode's (120 mM NaCl, 2.6 mM KCl, 12 mM NaHCO3, 0.39 mM NaH2PO4×H2O, 10 mM HEPES, 0.35% BSA, 5.5 mM glucose, pH 7.4) and adjusted with Tyrode's to a platelet count of 3×10^5/microliter (μl). 13 ml of this cell suspension were then mixed with 866 μl of 10 mM CaCl2 solution, and 120 μl thereof were pipetted into each well of a 96-well plate containing 15 μl of the substance to be tested. After incubation at RT in the dark for 30 minutes, 15 μl of a TRAP solution (70-100 μM) were added as agonist, and kinetics were recorded at 650 nm in a SpectraMax 340 at 37° C. for 20 minutes while shaking. The areas under the curves of negative control (Tyrode's/DMSO) and positive control (15 μl of agonist/DMSO) were calculated and the difference was fixed as the 100% value. The substances to be tested were pipetted as serial dilutions in duplicate determination, the AUC was likewise determined for each substance concentration, and the % inhibition of the AUC compared with the control was calculated. On the basis of the % inhibition, the IC50 was calculated by nonlinear regression analysis according to the 4-parameter equation.

As for `CCOc1cc2c(c(F)c1OCC)C(=N)N(CC(=O)c1cc(Cl)cc(S(F)(F)(F)(F)F)c1)C2` [Example 27, 1-[3-Chloro-5-(pentafluorosulfanyl)phenyl]-2-(5,6-diethoxy-7-fluoro-1-imino-1,3-dihydroisoindol-2-yl)ethanone], the IC50 in experiment [1] came out at 1700 nM.
For the molecule `CCOc1cc2c(cc1C(=O)NC)C(=N)N(CC(=O)c1cc(NC)cc(S(F)(F)(F)(F)F)c1)C2` [Example 3, N-Methyl-6-ethoxy-3-imino-2-[2-(3-methylamino-5-pentafluorosulfanylphenyl)-2-oxoethyl]-2,3-dihydro-1H-isoindole-5-carboxamide], in experiment [2], the IC50 came out at 2 nM.
The same measure, in the same setting: then `CCOc1cc2c(cc1C(=O)NC)C(=N)N(CC(=O)c1cc(NC(C)=O)cc(S(F)(F)(F)(F)F)c1)C2` [Example 8, N-Methyl-2-[2-(3-acetylamino-5-pentafluorosulfanylphenyl)-2-oxoethyl]-6-ethoxy-3-imino-2,3-dihydro-1H-isoindole-5-carboxamide], with 17 nM.
Regarding `CCOc1cc2c(c(F)c1OCC)C(=N)N(CC(=O)c1cc(NC(=O)CC(C)(C)C)cc(S(F)(F)(F)(F)F)c1)C2` [Example 17, N-{3-[2-(5,6-Diethoxy-7-fluoro-1-imino-1,3-dihydroisoindol-2-yl)acetyl]-5-pentafluorosulfanylphenyl}-3,3-dimethylbutyramide], in experiment [1], the IC50 turned out to be 360 nM.
Molecule `CCOc1cc2c(cc1C(=O)NC)C(=N)N(CC(=O)c1cc(N(C)C)cc(S(F)(F)(F)(F)F)c1)C2` [Example 2, N-Methyl-2-[2-(3-dimethylamino-5-pentafluorosulfanylphenyl)-2-oxoethyl]-6-ethoxy-3-imino-2,3-dihydro-1H-isoindole-5-carboxamide] gave an IC50 in experiment [2] of 597 nM.
Regarding `CCOc1cc2c(c(F)c1OCC)C(=N)N(CC(=O)c1cc(Br)c(S(F)(F)(F)(F)F)cc1N)C2` [Example 20, 1-[2-Amino-5-bromo-4-(pentafluorosulfanyl)phenyl]-2-(5,6-diethoxy-7-fluoro-1-imino-1,3-dihydroisoindol-2-yl)ethanone], in experiment [1], the IC50 is 128 nM.
Turning to `CCOc1cc2c(cc1C(=O)NC)C(=N)N(CC(=O)c1cc(N(S(C)(=O)=O)S(C)(=O)=O)cc(S(F)(F)(F)(F)F)c1)C2` [Example 10, N-Methyl-6-ethoxy-3-imino-2-{2-[3-dimethanesulfonylamino-5-(pentafluorosulfanyl)phenyl]-2-oxoethyl}-2,3-dihydro-1H-isoindole-5-carboxamide], the 50% inhibitory concentration (IC50) in experiment [2] was found to be 718 nM.
Take `CCOc1cc2c(c(F)c1OCC)C(=N)N(CC(=O)c1cc(N)c(S(F)(F)(F)(F)F)cc1C)C2` [Example 16, 1-[5-Amino-2-methyl-4-(pentafluorosulfanyl)phenyl]-2-(5,6-diethoxy-7-fluoro-1-imino-1,3-dihydroisoindol-2-yl)ethanone]: the IC50 in experiment [2] turned out to be 10600 nM.
For the molecule `CCOc1cc2c(c(F)c1OCC)C(=N)N(CC(=O)c1cc(NC(C)=O)cc(S(F)(F)(F)(F)F)c1)C2` [Example 14], the IC50 in experiment [1] turned out to be 227 nM.
`CCOc1cc2c(c(F)c1OCC)C(=N)N(CC(=O)c1cc(OC)cc(S(F)(F)(F)(F)F)c1)C2` [Example 21, 2-(5,6-Diethoxy-7-fluoro-1-imino-1,3-dihydroisoindol-2-yl)-1-[3-methoxy-5-(pentafluorosulfanyl)phenyl]ethanone] showed an IC50 in experiment [2] of 28 nM.
As for `CCOc1cc2c(c(F)c1OCC)C(=N)N(CC(=O)c1cc(N3CCOCC3)cc(S(F)(F)(F)(F)F)c1)C2` [Example 30, 2-(5,6-Diethoxy-7-fluoro-1-imino-1,3-dihydroisoindol-2-yl)-1-[3-morpholin-4-yl-5-(pentafluorosulfanyl)phenyl]ethanone], the IC50 in experiment [1] is 225 nM.
Turning to `CCOc1cc2c(c(F)c1OCC)C(=N)N(CC(=O)c1cc(N3C(=O)CCC3=O)cc(S(F)(F)(F)(F)F)c1)C2` [Example 18, 1-{3-[2-(5,6-Diethoxy-7-fluoro-1-imino-1,3-dihydroisoindol-2-yl)acetyl]-5-pentafluorosulfanylphenyl}pyrrolidine-2,5-dione], in experiment [2], the IC50 amounted to 175 nM.
With `CCOc1cc2c(cc1C(=O)NC)C(=N)N(CC(=O)c1cc(NC(=O)C(F)(F)F)cc(S(F)(F)(F)(F)F)c1)C2` [Example 4, N-Methyl-6-ethoxy-3-imino-2-{2-[3-pentafluorosulfanyl-5-(2,2,2-trifluoroacetylamino)phenyl]-2-oxoethyl}-2,3-dihydro-1H-isoindole-5-carboxamide], the IC50 in experiment [1] is 4800 nM.
With `CCOc1cc(C(=O)CN2Cc3cc(OCC)c(OCC)c(F)c3C2=N)cc(S(F)(F)(F)(F)F)c1` [Example 24, 2-(5,6-Diethoxy-7-fluoro-1-imino-1,3-dihydroisoindol-2-yl)-1-[3-ethoxy-5-(pentafluorosulfanyl)phenyl]ethanone], in experiment [1], the IC50 is 512 nM.
In experiment [2], `CCOc1cc2c(c(F)c1OCC)C(=N)N(CC(=O)c1cc(N(C)C(C)=O)cc(S(F)(F)(F)(F)F)c1)C2` [Example 12, N-[3-[2-(5,6-diethoxy-7-fluoro-1-imino-1,3-dihydroisoindol-2-yl)acetyl]-5-(pentafluorosulfanyl)phenyl]-N-methylacetamide] had an IC50 of 387 nM.
The same measure, in the same setting: then `CCOc1cc2c(c(F)c1OCC)C(=N)N(CC(=O)c1ccc(S(F)(F)(F)(F)F)cc1N)C2` [Example 19, 1-[2-Amino-4-(pentafluorosulfanyl)phenyl]-2-(5,6-diethoxy-7-fluoro-1-imino-1,3-dihydroisoindol-2-yl)ethanone], with 98 nM.
